Where two headings read alike, the source gives them in different places.
Key:
[1] = in vivo; conditions: mouse, oral, in 0.5% C.M.C., ddY male mice, death rate for 7 days
[2] = system: spontaneously hypertensive rats (SHR); test: Antihypertensive activity (blood pressure after oral administration); assay type: in vivo; conditions: for inhibition in vivo at 30 mg/kg / inhibition in vivo at 200 mg/kg / inhibition in vivo at 10 mg/kg / inhibition in vivo at 100 mg/kg: Rattus norvegicus, decrease vs before; for inhibition in vivo at 30 mg/kg / Blood pressure 2 hrs / Blood pressure 4 hrs / Blood pressure 6 hrs / inhibition in vivo at 200 mg/kg / inhibition in vivo at 10 mg/kg / inhibition in vivo at 100 mg/kg: SHR; for Blood pressure 2 hrs: 2 hrs after administration; for Blood pressure 2 hrs / Blood pressure 4 hrs / Blood pressure 6 hrs: mean ± S.E.; for Blood pressure 4 hrs: 4 hrs after administration; for Blood pressure 6 hrs: 6 hrs after administration
Method: The test compounds, which were dissolved or suspended in 0.5% C.M.C. aqueous solution, were orally administered to groups of 3 or 4 spontaneously hypertensive rats (SHR), weighing about 300 to 400 g. Blood pressure was measured before and 2, 4 and 6 hours after the administration.

[3] = in vivo
[4] = oral 30 mg/kg, 2 hrs, read-out: Blood pressure 2 hrs [Decrease]
[5] = oral 30 mg/kg, 4 hrs, read-out: Blood pressure 4 hrs [Decrease]
[6] = oral 30 mg/kg, 6 hrs, read-out: Blood pressure 6 hrs [Decrease]
[7] = oral 200 mg/kg, 2 hrs, read-out: Blood pressure 2 hrs [Decrease]
[8] = oral 200 mg/kg, 4 hrs, read-out: Blood pressure 4 hrs [Decrease]
[9] = oral 200 mg/kg, 6 hrs, read-out: Blood pressure 6 hrs [Decrease]
[10] = oral 10 mg/kg, 2 hrs, read-out: Blood pressure 2 hrs [Decrease]
[11] = oral 10 mg/kg, 4 hrs, read-out: Blood pressure 4 hrs [Decrease]
[12] = oral 10 mg/kg, 6 hrs, read-out: Blood pressure 6 hrs [Decrease]
[13] = oral 100 mg/kg, 2 hrs, read-out: Blood pressure 2 hrs [Decrease]
[14] = oral 100 mg/kg, 4 hrs, read-out: Blood pressure 4 hrs [Decrease]
[15] = oral 100 mg/kg, 6 hrs, read-out: Blood pressure 6 hrs [Decrease]

In the case of `CO[C@@H]1[C@H](O)[C@@H](CO)O[C@H]1n1cnc2c(N)nc(F)nc21` [Compound 29, 2-fluoro-2'-O-methyladenosine], the LD50 at 168 h [1] is reported as > 2000 mg/kg, the inhibition in vivo at 30 mg/kg [2, 4] is reported as 45.9% and the inhibition in vivo at 30 mg/kg [2, 5] is reported as 19.8%. The inhibition in vivo at 30 mg/kg [2, 6] was 16.4%, the “Blood pressure 2 hrs” value ([2]; oral 30 mg/kg) was 131 ± 4 mmHg and the “Blood pressure 4 hrs” value ([2]; oral 30 mg/kg) was 195 ± 5 mmHg. For the same compound, the “Blood pressure 6 hrs” value ([2]; oral 30 mg/kg) was 204 ± 3 mmHg.
For `CNc1ncnc2c1ncn2[C@@H]1O[C@H](COC)[C@@H](O)[C@H]1O` [Compound 19, N^6-5'-O-dimethyladenosine], the LD50 at 168 h [1] was 1300 mg/kg, the inhibition in vivo at 30 mg/kg [2, 4] was 43% and the inhibition in vivo at 30 mg/kg [2, 5] was 27.1%. The inhibition in vivo at 30 mg/kg [2, 6] was 26.3%, the “Blood pressure 2 hrs” value ([2]; oral 30 mg/kg) was 122 ± 8 mmHg and the “Blood pressure 4 hrs” value ([2]; oral 30 mg/kg) was 155 ± 7 mmHg. The “Blood pressure 6 hrs” value ([2]; oral 30 mg/kg) was 157 ± 12 mmHg.
For `CO[C@@H]1[C@H](O)[C@@H](CO)O[C@H]1n1cnc2c(N)ncnc21` [Compound 1, 2'-O-methyladenosine], the LD50 at 168 h [1] was > 2000 mg/kg, the inhibition in vivo at 200 mg/kg [2, 7] was 53.2% and the inhibition in vivo at 200 mg/kg [2, 8] was 45.8%. The inhibition in vivo at 200 mg/kg [2, 9] was 42.8%, the “Blood pressure 2 hrs” value ([2]; oral 200 mg/kg) was 103 ± 21 mmHg and the “Blood pressure 4 hrs” value ([2]; oral 200 mg/kg) was 121 ± 32 mmHg. For the same compound, the “Blood pressure 6 hrs” value ([2]; oral 200 mg/kg) was 128 ± 41 mmHg.
In the case of `CO[C@@H]1[C@H](O)[C@@H](CO)O[C@H]1n1cnc2c(N)nc(C)nc21` [Compound 5, 2,2'-O-dimethyladenosine], the LD50 at 168 h [1] is reported as 540 mg/kg, the inhibition in vivo at 10 mg/kg [2, 10] is reported as 40.2% and the inhibition in vivo at 10 mg/kg [2, 11] is reported as 26.5%. The inhibition in vivo at 10 mg/kg [2, 12] was 12.7%, the “Blood pressure 2 hrs” value ([2]; oral 10 mg/kg) was 131 ± 6 mmHg and the “Blood pressure 4 hrs” value ([2]; oral 10 mg/kg) was 161 ± 11 mmHg. The “Blood pressure 6 hrs” value ([2]; oral 10 mg/kg) was 193 ± 24 mmHg.
`CCO[C@@H]1[C@H](O)[C@@H](CO)O[C@H]1n1cnc2c(NC)nc(C)nc21` [Compound 22, 2,N^6-dimethyl-2'-O-ethyladenosine] gave an LD50 at 168 h [1] of ~400 mg/kg, an inhibition in vivo at 10 mg/kg [2, 10] of 25.8% and an inhibition in vivo at 10 mg/kg [2, 11] of 18.8%. For the same compound, the inhibition in vivo at 10 mg/kg [2, 12] was 13.1%, the “Blood pressure 2 hrs” value ([2]; oral 10 mg/kg) was 168 ± 6 mmHg and the “Blood pressure 4 hrs” value ([2]; oral 10 mg/kg) was 185 ± 7 mmHg. For the same compound, the “Blood pressure 6 hrs” value ([2]; oral 10 mg/kg) was 197 ± 3 mmHg.
For `CNc1ncnc2c1ncn2[C@@H]1O[C@H](CO)[C@@H](O)[C@H]1OC` [Compound 17, N^6-2'-O-dimethyladenosine], the inhibition in vivo at 30 mg/kg [2, 4] was 17.1%, the inhibition in vivo at 30 mg/kg [2, 5] was 11.7% and the inhibition in vivo at 30 mg/kg [2, 6] was 14.1%. For the same compound, the “Blood pressure 2 hrs” value ([2]; oral 30 mg/kg) was 192 ± 15 mmHg, the “Blood pressure 4 hrs” value ([2]; oral 30 mg/kg) was 204 ± 5 mmHg and the “Blood pressure 6 hrs” value ([2]; oral 30 mg/kg) was 199 ± 8 mmHg.
`CNc1nc(C)nc2c1ncn2[C@@H]1O[C@H](CO)[C@@H](O)[C@H]1OC` [Compound 21, 2,N^6,2'-O-trimethyladenosine] gave an LD50 at 168 h [1] of ~400 mg/kg, an inhibition in vivo at 30 mg/kg [2, 4] of 23.9% and an inhibition in vivo at 30 mg/kg [2, 5] of 16.9%. The inhibition in vivo at 30 mg/kg [2, 6] was 10.8%, the “Blood pressure 2 hrs” value ([2]; oral 30 mg/kg) was 159 ± 20 mmHg and the “Blood pressure 4 hrs” value ([2]; oral 30 mg/kg) was 172 ± 7 mmHg. The “Blood pressure 6 hrs” value ([2]; oral 30 mg/kg) was 188 ± 8 mmHg.
Compound `CO[C@@H]1[C@H](O)[C@@H](CO)O[C@H]1n1cnc2c(N)nc(Cl)nc21` [Compound 27, 2-chloro-2'-O-methyladenosine] has an LD50 at 168 h [1] of ~400 mg/kg, an inhibition in vivo at 100 mg/kg [2, 13] of 68.4% and an inhibition in vivo at 100 mg/kg [2, 14] of 64.8%. The inhibition in vivo at 100 mg/kg [2, 15] was 66.9%, the “Blood pressure 2 hrs” value ([2]; oral 100 mg/kg) was 70 ± 10 mmHg and the “Blood pressure 4 hrs” value ([2]; oral 100 mg/kg) was 78 ± 8 mmHg. For the same compound, the “Blood pressure 6 hrs” value ([2]; oral 100 mg/kg) was 73 ± 16 mmHg.
Compound `Nc1ncnc2c1ncn2[C@@H]1O[C@H](CO)[C@@H](O)[C@H]1O` [Adenosine, adenosine] has an inhibition in vivo at 200 mg/kg [2, 7] of -6.1%, an inhibition in vivo at 200 mg/kg [2, 8] of 1.8% and an inhibition in vivo at 200 mg/kg [2, 9] of -3.2%. The “Blood pressure 2 hrs” value ([2]; oral 200 mg/kg) was 202 ± 12 mmHg, the “Blood pressure 4 hrs” value ([2]; oral 200 mg/kg) was 187 ± 3 mmHg and the “Blood pressure 6 hrs” value ([2]; oral 200 mg/kg) was 198 ± 4 mmHg. The “hypotensive effect (in words)” value ([2]; oral administration) was “does not decrease blood pressure” and the “bradycardia (side effect)” value [3] was “Bradycardia was observed”.
For `CO[C@H]1[C@@H](O)[C@H](n2cnc3c(N)ncnc32)O[C@@H]1CO` [Compound 2, 3'-O-methyladenosine], the LD50 at 168 h [1] was > 2000 mg/kg, the inhibition in vivo at 200 mg/kg [2, 7] was 41.2% and the inhibition in vivo at 200 mg/kg [2, 8] was 29%. For the same compound, the inhibition in vivo at 200 mg/kg [2, 9] was 27.2%, the “Blood pressure 2 hrs” value ([2]; oral 200 mg/kg) was 135 ± 28 mmHg and the “Blood pressure 4 hrs” value ([2]; oral 200 mg/kg) was 163 ± 40 mmHg. For the same compound, the “Blood pressure 6 hrs” value ([2]; oral 200 mg/kg) was 167 ± 47 mmHg.
In the case of `CCO[C@@H]1[C@H](O)[C@@H](CO)O[C@H]1n1cnc2c(N)nc(C)nc21` [Compound 9, 2-methyl-2'-O-ethyladenosine], the LD50 at 168 h [1] is reported as 500 to 1000 mg/kg, the inhibition in vivo at 30 mg/kg [2, 4] is reported as 23.6% and the inhibition in vivo at 30 mg/kg [2, 5] is reported as 10.7%. The inhibition in vivo at 30 mg/kg [2, 6] was 13.5%, the “Blood pressure 2 hrs” value ([2]; oral 30 mg/kg) was 169 ± 7 mmHg and the “Blood pressure 4 hrs” value ([2]; oral 30 mg/kg) was 197 ± 5 mmHg. For the same compound, the “Blood pressure 6 hrs” value ([2]; oral 30 mg/kg) was 191 ± 9 mmHg.
`CCO[C@@H]1[C@H](O)[C@@H](CO)O[C@H]1n1cnc2c(N)ncnc21` [Compound 3, 2'-O-ethyladenosine] gave an LD50 at 168 h [1] of 750 to 1000 mg/kg, an inhibition in vivo at 100 mg/kg [2, 13] of 52.2% and an inhibition in vivo at 100 mg/kg [2, 14] of 49.5%. The inhibition in vivo at 100 mg/kg [2, 15] was 47.3%, the “Blood pressure 2 hrs” value ([2]; oral 100 mg/kg) was 102 ± 15 mmHg and the “Blood pressure 4 hrs” value ([2]; oral 100 mg/kg) was 106 ± 20 mmHg. The “Blood pressure 6 hrs” value ([2]; oral 100 mg/kg) was 111 ± 26 mmHg.
`COC[C@H]1O[C@@H](n2cnc3c(N)nc(C)nc32)[C@H](O)[C@@H]1O` [Compound 15, 2,5'-O-dimethyladenosine] showed an LD50 at 168 h [1] of 500 to 1000 mg/kg, an inhibition in vivo at 10 mg/kg [2, 10] of 35.2% and an inhibition in vivo at 10 mg/kg [2, 11] of 17.7%. For the same compound, the inhibition in vivo at 10 mg/kg [2, 12] was 9.1%, the “Blood pressure 2 hrs” value ([2]; oral 10 mg/kg) was 154 ± 13 mmHg and the “Blood pressure 4 hrs” value ([2]; oral 10 mg/kg) was 195 ± 22 mmHg. For the same compound, the “Blood pressure 6 hrs” value ([2]; oral 10 mg/kg) was 215 ± 5 mmHg.
In the case of `COC[C@H]1O[C@@H](n2cnc3c(N)ncnc32)[C@H](O)[C@@H]1O` [Compound 11, 5'-O-methyladenosine], the LD50 at 168 h [1] is reported as 800 mg/kg, the inhibition in vivo at 30 mg/kg [2, 4] is reported as 18.2% and the inhibition in vivo at 30 mg/kg [2, 5] is reported as 5.9%. The inhibition in vivo at 30 mg/kg [2, 6] was 6.6%, the “Blood pressure 2 hrs” value ([2]; oral 30 mg/kg) was 189 ± 3 mmHg and the “Blood pressure 4 hrs” value ([2]; oral 30 mg/kg) was 206 ± 10 mmHg. For the same compound, the “Blood pressure 6 hrs” value ([2]; oral 30 mg/kg) was 204 ± 9 mmHg.
In the case of `CNc1nc(C)nc2c1ncn2[C@@H]1O[C@H](COC)[C@@H](O)[C@H]1O` [Compound 24, 2,N^6,5'-O-trimethyladenosine], the LD50 at 168 h [1] is reported as 1320 mg/kg, the inhibition in vivo at 10 mg/kg [2, 10] is reported as 43.3% and the inhibition in vivo at 10 mg/kg [2, 11] is reported as 27%. The inhibition in vivo at 10 mg/kg [2, 12] was 23%, the “Blood pressure 2 hrs” value ([2]; oral 10 mg/kg) was 128 ± 7 mmHg and the “Blood pressure 4 hrs” value ([2]; oral 10 mg/kg) was 165 ± 7 mmHg. The “Blood pressure 6 hrs” value ([2]; oral 10 mg/kg) was 174 ± 4 mmHg.

From patent US4843066A, “Novel adenosine derivatives and pharmaceutical composition containing them as an active ingredient” (priority 1986, dated 1989)
